# Several values for one entry are separate records, joined by “and”; a condition that tells them apart may be missing. Identical values can stand only once.
# System: ovariectomized Sprague-Dawley rats
# Test: Morphine withdrawal rat hot flush model (naloxone-induced tail skin temperature rise)
# Type: in vivo
# Conditions: for morphine withdrawal hot flush model responsive to agent: data not shown
# Source text: Simpkins et al. ((1983) Life Sci. 32:1957-1966) first published morphine withdrawal in the rat as a putative model for hot flushes, based on observations highlighting the similarity of symptoms of gonadal steroid withdrawal to those of opioid withdrawal. Although less severe, the signs and symptoms associated with clinical hot flushes, or estrogen deficiency, in the rat parallel those produced by naloxone-precipitated withdrawal in morphine dependent rats, including: 1) an increase in tail skin temperature; 2) a surge in luteinizing hormone; and 3) an increase in heart rate. Each of these responses is associated with an increase in sympathetic outflow, which is a current mechanistic hypothesis for hot flushes.
# In this example, a modification of the original procedure of Simpkins et al. (1983) is used, employing ovariectomized Sprague-Dawley rats. Animals at 60 days of age (or 200-225 grams) are ovariectomized, and allowed a 14-day rest period to insure surgical recovery and clearance of endogenous ovarian hormones. Test compound administration (po or sc) is initiated on day 14 post-ovariectomy in a volume of 1 ml/kg. Once daily administration of test compounds continues through the end of the experiment. On days 15 and 17 post-ovariectomy, the rats are lightly anesthetized with isoflurane and a single 75 mg morphine (free base) pellet is surgically implanted subcutaneously.
# On day 21 post-ovariectomy, animals are given ketamine (80 mg/kg; IM) 2 hours after final administration of the test compound. Following induction of the anesthesia, rats are then placed in individual plexiglass cages and temperature sensitive probes are applied to the dorsal side of the tail base. Temperature monitoring is initiated 30 minutes after administration of ketamine, and is recorded every 15 seconds for a 1-hr period. To induce morphine withdrawal, 1 mg/kg naloxone is given subcutaneously 15 minutes after start of temperature monitoring. A sharp rise in tail skin temperature typically occurs within 5 minutes post-naloxone injection, and two quantitative endpoints are made: 1) tail skin temperature at 15 minutes post-naloxone, and 2) area under the temperature response curve for the 45 minute post-naloxone measurement period.
# Ethinyl estradiol is dosed orally at 0.3 mg/kg as a positive control. […] Using area under the curve measurements, the response induced by each compound is calculated as a percent inhibition of temperature increase versus the morphine control.
molecule,measurement,setting,value
CCOc1ccccc1OC(c1ccccc1)C1CNCCO1 (racemic) [reboxetine],% Inhibition vs. Morphine Control,"rat, in vivo, sc, 5 mg/kg",94%
"CCOc1ccccc1OC(c1ccccc1)C1CNCCO1 [(R,S)-Reboxetine, (R,S)-reboxetine]",% Inhibition vs. Morphine Control,"rat, in vivo, sc, 5 mg/kg",94%
"CNCCCN1c2ccccc2CCc2ccccc21 [Desipramine, desipramine]",% Inhibition vs. Morphine Control,"PO, 10 mg/kg, area under the tail skin temperature curve, 45 min post-naloxone",101%
same,% Inhibition vs. Morphine Control,"PO, 10 mg/kg, area under the tail skin temperature curve, 45 min post-naloxone, listed as desipramine",101%
"C#C[C@]1(O)CC[C@H]2[C@@H]3CCc4cc(O)ccc4[C@H]3CC[C@@]21C [Ethinyl Estradiol, Ethinyl estradiol]",% Inhibition vs. Morphine Control,"PO, 0.3 mg/kg, area under the tail skin temperature curve, 45 min post-naloxone",89% and 73% and 90%
same,% Inhibition vs. Morphine Control,"PO, 0.3 mg/kg, area under the tail skin temperature curve, 45 min post-naloxone, listed as Ethinyl estradiol",70-90%
Clc1cccc(Cl)c1N=C1NCCN1 [clonidine],morphine withdrawal hot flush model responsive to agent,,responsive
C#C[C@]1(O)CC[C@H]2[C@@H]3[C@H](C)CC4=C(CCC(=O)C4)[C@H]3CC[C@@]21C [tibolone],morphine withdrawal hot flush model responsive to agent,,responsive
medroxyprogesterone,morphine withdrawal hot flush model responsive to agent,,responsive
